Data taken from US11338004B2, “Composition for preventing or treating cranial nerve disease comprising fomes fomentarius extract, fraction thereof, or compound isolated therefrom as active ingredient” (priority 2015, dated 2022).

Legend:
AChE = AChE (Homo sapiens, UniProt P22303); test: Acetylcholinesterase inhibitory activity; type: biochemical; settings: read-out: acetylcholinesterase inhibitory activity (%)
Description: AChE and acetylthocholine iodine (ATC) were dissolved in 100 mM phosphate buffer (pH 8.0) to prepare 0.25 U/mL and 75 mM, respectively. […] 2.8 mL of phosphate buffer (100 mM, pH 8.0), 30 μL of AChE (0.25 U/mL), and 100 μL of DTNB were added to 30 μL of the extract, and were mixed. Then, the mixture was preincubated at 37° C. for 10 minutes. Then, 30 μL of substrate ATC was added thereto and was reacted at 37° C. for 3 minutes, and then the absorbance was measured at 412 nm. As a control group, 30 μL of 100 mM phosphate buffer (pH 8.0) was added instead of the extract, and then was measured.

NF-κB = test: Western blotting of LPS-induced NF-κB phosphorylation in BV2 cells; type: cell-based, mouse
Description: (§1) BV2 cells were placed in a 6-well plate at 7.5×10^5 cells/well, and stabilized at 37° C. and 5.0% CO2 for 12 hours. After that, LPS and the Fomes fomentarius CHCl3 fractions, the nonadecanone (2-Nonadecanone) or the docosenol (cis-13-Docosenol) compounds were placed according to groups and were incubated for 1 hour. The cell culture was collected and used for cytokine analysis. All the cell culture was removed, and then 1 ml of dPBS was dispensed to each well to wash and remove the wells. 200 μl of the lysis buffer was dispensed per well and the cells attached to the bottom of the well were removed with a cell scriper, and then were slowly mixed and reacted for […] on ice at 4° C. The cells were removed with a scriper again and all the lysis solution was collected. The collected lysis solution was centrifuged at 15,000 rpm for 15 minutes at 4° C. so that only the supernatant was collected. In order to plot standard curves for protein quantification, a standard BSA solution ([…]) and a dilution were prepared in which bradford solution and D.W. were diluted with 4:1. After the bradford dilution was dispensed in each 200 μl to 96-well, the standard BSA solution and the cell lysis supernatant were dispersed in a volume of 10 μl per well, and then they were mixed by pipetting. After 10 minutes, the protein was quantitated by measuring the absorbance at 595 nm in a reader. The subsequent procedures were carried out in the same manner as in the quantitative analysis of the protein of Example 3-3.

[1] = system: NO production in mouse BV2 cell line; test: NO (nitrite) production in LPS-treated BV2 cells, Griess reagent; type: cell-based
Description: (§2) A mouse BV2 cell line was stored and maintained in a humidified incubator at 37° C. under a 5% CO2 condition using a DMEM culture medium supplemented with 10% FBS, 100 U/ml of penicillin and 100 μg/ml of streptomycin, was trypsinized, and was subcultured.
In the present disclosure, the amount of nitrite produced was measured to determine the anti-inflammatory activity of the Fomes fomentarius fraction. Nitrite is a major stable product of nitric oxide (NO), one of the inflammatory mediators, and was measured by using Griess reagent.
First, the cells were cultured at 5×10^5 cells/ml in a 6-well plate. They were treated with Fomes fomentarius extracts having various concentrations (5, 20, 50, and 100 μg/ml) and then reacted for 24 hours in the presence or absence of LPS ([…]). DMEM medium for BV2 cells and the fresh medium containing LPS (1 μg/ml) and the sample were treated at the same time and cultured for 24 hours. The amount of NO produced was determined using Griess reagent in which 100 μl of cell culture supernatant and 100 μl of Griess reagent [1% (w/v) sulfanilamide, 0.1% (w/v) naphthyl ethylenediamine in 2.5% (v/v) phosphoric acid] were mixed and reacted on a 96-well plate for 10 minutes, and then an ELISA reader was used to measure absorbance at 540 nm. Standard concentration curves were obtained by stepwise dilution of sodium nitrite (NaNO2).

xanthine oxidase = xanthine oxidase (Homo sapiens, UniProt P47989); test: Xanthine oxidase inhibitory activity; type: biochemical; settings: for inhibition at 10 µg/mL: 10 μg/mL; for inhibition at 20 µg/mL: 20 μg/mL; for inhibition at 40 µg/mL: 40 μg/mL; for inhibition at 80 µg/mL: 80 μg/mL; for inhibition at 160 µg/mL: 160 μg/mL; for inhibition at 320 µg/mL: 320 μg/mL; for inhibition at 640 µg/mL: 640 μg/mL
Description: 0.2 ml of the substrate solution in which 2 mM xanthine was dissolved was added to 0.1 ml of a sample solution and 0.6 ml of 0.1 M potassium phosphate buffer at pH 7.5, and 0.1 ml of 0.2 unit/ml xanthine oxidase was added thereto, followed by reaction at 37° C. for 5 minutes. Then, 1 ml of 1N HCl was added to terminate the reaction, and then the absorbance of the uric acid produced in the reaction solution was measured at 292 nm. The inhibitory activity of xanthine oxidase was shown by the absorbance reduction rate of the addition group and the non-addition group of the sample solution.
Xanthine oxidase acts as a rate-limiting enzyme in the terminal oxidation of all purines and is an enzyme that acts as a source of oxidizing agents such as superoxide radicals and hydrogen peroxide. The superoxide anion inhibition by xanthine/xanthine oxidase enzymes is shown by superoxide anion scavenging activity and xanthine oxidase inhibition and has biologically important meaning through inhibition of gout and formation of free radicals. The superoxide radical scavenging effects of 10, 20, 40, 80, 160, 320, and 640 μg mL-1 of each fraction extract of the Fomes fomentarius were compared using butylated hydroxy anisole (BHA) as a positive control group.
The superoxide radical scavenging effects of 10, 20, 40, 80, 160, 320, and 640 μg mL-1 of the Acer tegmentosum maxim extract were compared using butylated hydroxy anisole (BHA) as a positive control group.
The superoxide radical scavenging effects of 10, 20, 40, 80, 160, 320, and 640 μg mL-1 of the berchemia berchemiaefolia extract were compared using butylated hydroxy anisole (BHA) as a positive control group.
The superoxide radical scavenging effects of 10, 20, 40, 80, 160, 320, and 640 μg mL-1 of the Lithospermum erythrorhizon extract were compared using butylated hydroxy anisole (BHA) as a positive control group.

TNF-α = TNF-α in LPS-treated BV2 cells; type: cell-based, mouse; set-up: unit not given here
Description: as §2, §1

AChE, sequence (P22303 32-614): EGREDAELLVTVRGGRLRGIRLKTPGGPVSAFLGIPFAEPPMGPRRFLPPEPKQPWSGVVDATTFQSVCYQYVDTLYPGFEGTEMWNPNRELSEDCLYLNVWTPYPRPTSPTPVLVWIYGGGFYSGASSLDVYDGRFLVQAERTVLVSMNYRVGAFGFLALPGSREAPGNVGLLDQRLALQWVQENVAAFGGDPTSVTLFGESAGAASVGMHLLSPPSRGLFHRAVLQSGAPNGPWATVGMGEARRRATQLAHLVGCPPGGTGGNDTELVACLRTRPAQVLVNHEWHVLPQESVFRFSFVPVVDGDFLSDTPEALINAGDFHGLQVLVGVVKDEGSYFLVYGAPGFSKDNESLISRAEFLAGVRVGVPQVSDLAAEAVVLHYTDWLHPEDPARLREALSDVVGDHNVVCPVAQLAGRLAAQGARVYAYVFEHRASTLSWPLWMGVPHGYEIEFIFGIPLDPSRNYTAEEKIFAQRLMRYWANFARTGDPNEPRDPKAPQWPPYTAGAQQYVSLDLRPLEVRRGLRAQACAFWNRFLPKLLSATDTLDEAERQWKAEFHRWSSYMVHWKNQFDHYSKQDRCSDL
xanthine oxidase, sequence (P47989 whole entry, species assumed): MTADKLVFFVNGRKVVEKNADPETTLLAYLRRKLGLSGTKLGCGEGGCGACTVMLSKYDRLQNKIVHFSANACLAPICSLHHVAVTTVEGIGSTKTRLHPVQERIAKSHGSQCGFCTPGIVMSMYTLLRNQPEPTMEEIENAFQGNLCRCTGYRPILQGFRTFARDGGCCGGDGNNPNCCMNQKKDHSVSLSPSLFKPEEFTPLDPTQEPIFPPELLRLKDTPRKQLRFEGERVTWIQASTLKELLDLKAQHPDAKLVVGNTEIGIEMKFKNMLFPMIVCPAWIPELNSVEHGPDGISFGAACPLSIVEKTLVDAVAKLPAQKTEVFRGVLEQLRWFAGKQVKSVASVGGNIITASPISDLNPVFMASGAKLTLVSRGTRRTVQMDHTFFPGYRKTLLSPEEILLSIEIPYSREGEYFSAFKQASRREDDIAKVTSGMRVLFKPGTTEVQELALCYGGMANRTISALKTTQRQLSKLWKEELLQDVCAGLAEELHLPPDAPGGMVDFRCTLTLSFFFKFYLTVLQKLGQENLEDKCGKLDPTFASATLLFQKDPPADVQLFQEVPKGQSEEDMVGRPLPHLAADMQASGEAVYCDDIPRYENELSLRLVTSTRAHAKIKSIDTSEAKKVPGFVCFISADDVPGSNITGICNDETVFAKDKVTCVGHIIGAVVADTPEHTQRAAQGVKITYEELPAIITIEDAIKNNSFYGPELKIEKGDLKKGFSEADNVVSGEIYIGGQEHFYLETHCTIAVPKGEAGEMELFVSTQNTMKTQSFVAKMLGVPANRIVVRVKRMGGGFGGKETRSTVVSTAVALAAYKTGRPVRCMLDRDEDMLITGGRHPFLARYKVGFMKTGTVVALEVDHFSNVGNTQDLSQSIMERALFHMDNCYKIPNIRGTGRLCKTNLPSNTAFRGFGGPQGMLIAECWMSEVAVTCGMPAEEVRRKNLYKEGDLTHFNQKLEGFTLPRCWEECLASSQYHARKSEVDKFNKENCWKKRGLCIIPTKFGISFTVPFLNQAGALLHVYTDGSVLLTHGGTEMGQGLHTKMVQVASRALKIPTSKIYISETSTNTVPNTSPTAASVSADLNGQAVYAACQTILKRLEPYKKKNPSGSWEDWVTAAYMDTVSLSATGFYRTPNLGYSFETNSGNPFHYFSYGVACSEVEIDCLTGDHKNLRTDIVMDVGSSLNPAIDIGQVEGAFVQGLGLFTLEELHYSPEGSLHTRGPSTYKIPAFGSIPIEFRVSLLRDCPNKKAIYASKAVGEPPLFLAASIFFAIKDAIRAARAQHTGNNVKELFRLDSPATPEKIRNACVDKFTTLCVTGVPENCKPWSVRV

Row | Structure (SMILES) | inhibition at 10 µg/mL (AChE) [%] | inhibition at 20 µg/mL (AChE) [%] | inhibition at 40 µg/mL (AChE) [%] | inhibition at 80 µg/mL (AChE) [%] | inhibition at 160 µg/mL (AChE) [%] | inhibition at 320 µg/mL (AChE) [%] | inhibition at 640 µg/mL (AChE) [%] | p-NF-κB/NF-κB ratio (%), expression ratio (vehicle 100%) (NF-κB; 5 μg/ml) | p-NF-κB/NF-κB ratio (%), expression ratio (vehicle 100%) (NF-κB; 20 μg/ml) | p-NF-κB/NF-κB ratio (%), expression ratio (vehicle 100%) (NF-κB; 50 μg/ml) | NO production (nitrite) ([1]; 5 μg/ml) | NO production (nitrite) ([1]; 20 μg/ml) | NO production (nitrite) ([1]; 50 μg/ml) | NO production (nitrite) ([1]; 100 μg/ml) | inhibition at 10 µg/mL (xanthine oxidase) [%] | inhibition at 20 µg/mL (xanthine oxidase) [%] | inhibition at 40 µg/mL (xanthine oxidase) [%] | inhibition at 80 µg/mL (xanthine oxidase) [%] | inhibition at 160 µg/mL (xanthine oxidase) [%] | inhibition at 320 µg/mL (xanthine oxidase) [%] | also measured
1 | CCCCCCCC/C=C\CCCCCCCCCCCCO [docosenol, cis-13-Docosenol] | 18.1 ± 2.6 | 23.1 ± 3.8 | 28.4 ± 1.9 | 35.9 ± 5.1 | 40.9 ± 6.8 | 55.1 ± 4.9 | 59.6 ± 6.6 | about 41% | about 28% | about 8% | 8.04±0.55 | 5.56±0.61 | 4.42±0.48 | 2.76±40.59 | 0.9 ± 0.3 | 2.5 ± 0.5 | 3.6 ± 0.7 | 5.8 ± 1.1 | 7.7 ± 0.9 | 9.6 ± 0.8 | inhibition at 640 µg/mL (xanthine oxidase): 11.8 ± 1.4%; TNF-α level (TNF-α; 5 μg/ml): 60.12±7.4; TNF-α level (TNF-α; 20 μg/ml): 40.58±6.2; TNF-α level (TNF-α; 50 μg/ml): 28.15±4.1; TNF-α level (TNF-α; 100 μg/ml): 22.87±5.6
2 | CCCCCCCCCCCCCCCCCC(C)=O [nonadecanone, 2-Nonadecanone] | 11.6 ± 1.1 | 18.9 ± 0.9 | 23.4 ± 2.8 | 30.1 ± 1.8 | 35.1 ± 3.1 | 41.5 ± 2.2 | 41.9 ± 3.8 | about 35% | about 21% | about 15% | 2.98±0.78 | 2.35±0.68 | 1.99±0.39 | 1.62±0.41 | 4.1 ± 0.5 | 6.9 ± 0.8 | 12.3 ± 1.1 | 20.5 ± 0.9 | 21.6 ± 0.7 | 24.6 ± 1.1 | p-NF-κB/NF-κB ratio (%), expression ratio (vehicle 100%) (NF-κB; 100 μg/ml): about 12%; inhibition at 640 µg/mL (xanthine oxidase): 30.8 ± 1.4%; TNF-α level (TNF-α; 5 μg/ml): 79.12±4.1; TNF-α level (TNF-α; 20 μg/ml): 70.24±5.0; TNF-α level (TNF-α; 50 μg/ml): 59.56±6.2; TNF-α level (TNF-α; 100 μg/ml): 50.47±3.1
